Tested on: Gαi3 N269D
Test: Co-immunoprecipitation in HEK293T cells, Gαi3 N269D versus WT
Format: binding
Conditions: HEK293T lysates, FLAG-tagged Gαi3 N269D vs WT; GST-Ric-8A 1 μg added
Procedure: HEK293T cells (American Type Culture Collection) were grown at 37 °C in DMEM supplemented with 10% FBS, 100 U ml^−1 penicillin, 100 μg ml^−1 streptomycin, 1% L-glutamine and 5% CO2. DNA plasmids encoding for C-terminally 3xFLAG-tagged Gαi3 (ref. [25]) or an empty plasmid (p3xFLAG-CMV-14) were transfected using the calcium phosphate method in 10 cm dishes. The DNA amount for the Gαi3 N269D plasmid was threefold (12 μg) of that for Gαi3 WT (4 μg) to equalize their expression levels. Cells were collected 48 h after transfection by gently scrapping in PBS, centrifuged and resuspended in 1 ml of lysis buffer (20 mM HEPES (pH 7.2), 5 mM Mg(CH3COO)2, 125 mM K(CH3COO), 0.4% (v:v) Triton X-100, 1 mM DTT, 10 mM β-glycerophosphate and 0.5 mM Na3VO4 supplemented with a protease inhibitor cocktail (Sigma; catalogue #S8830)) and cleared (14,000g for 10 min) before use. Lysates were supplemented with 1 μg of purified GST-Ric-8A (12–491)[22] and 2 μg of mouse anti-FLAG antibody (Sigma F1804), and incubated for 4 h at 4 °C with rotation. BSA-blocked Protein G agarose beads (Thermo-Scientific) were added and tubes incubated for additional 90 min at 4 °C. Beads were washed four times (4.3 mM Na2HPO4, 1.4 mM KH2PO4, pH 7.4, 137 mM NaCl, 2.7 mM KCl, 0.1% (v/v) Tween 20, 10 mm MgCl2, 5 mm EDTA and 1 mm DTT) and immunoprecipitated proteins eluted by boiling in Laemmli sample buffer. […]

Full-length GIV: full-length GIV from HEK293T cells, 1,870 amino acids
co-immunoprecipitation with nucleotide-free-mimicking mutant compared with WT: as efficiently as with the wild-type (WT) protein

From PMC5454376, “Molecular mechanism of Gαi activation by non-GPCR proteins with a Gα-Binding and Activating motif” (Nature Communications, 2017)
